For one data set, the system named is AMPA-kainate receptor. To be noted: developing oligodendrocytes; similar to NBQX; cited from earlier work.
Data set [1] deals with hypoxic-ischemic white matter injury. To be noted: administration post-insult in vivo; cited from earlier work.
Data set [2] can be described thus: Topiramate phase solubility study with the cyclodextrin CAPTISOL
Protocol: A phase solubility study was conducted with the cyclodextrin CAPTISOL® and topiramate to evaluate the extent of solubilization of the drug by the derivatized cyclodextrin.
Solutions containing increasing amounts of dissolved CAPTISOL® brand of sulfobutylether-β-cyclodextrin were prepared and added to small glass vials. Excess solid topiramate was added to each vial and the vials were capped, vortexed and placed in constant agitation for five days at room temperature (about 23° C. to about 25° C.).
After the multi-day equilibration period, the vials were centrifuged (twice at 693×g, 25° C.) and aliquots were taken from the clear supernatant solutions. The aliquots were diluted 1:3 (1:5.67 for 40% cyclodextrin CAPTISOL® solutions) with mobile phase and analyzed by HPLC for topiramate content.
• HPLC: Dionex • Detection: Refractive Index Detector • Column: SB-Phenyl (5 μm) 250 mm×4.6 mm • Column Temperature: 35° C. • Mobile Phase: 40:60 (MeOH:Water) • Flow Rate: 1.0 mL/min isocratic • Run Time: 30 minutes • Sample Solvent: Mobile phase • Injection Volume: 50 μL • Retention Time: ˜12.5 minutes Mobile Phase Preparation
For data set [3] the following is noted: cited from earlier work.
A short description of data set [4]: Open labeled single dose intravenous [13C]6-TPM/CAPTISOL study in adult patients on maintenance oral topiramate (pharmacokinetics and safety). To be noted: for BP changes / EKG changes / Injection site irritation / Other adverse events / Pulse changes / Bioavailability (fraction of oral dose absorbed, AUCoral vs AUCiso) / Clearance / Distribution volume / Half life: IV dose 25 mg. The class given is in vivo, human. Here is the method:
This was an open labeled, single dose study in adult patients on a maintenance dose of topiramate for treatment of either migraines or epilepsy.
Patients were instructed to take their evening topiramate dose the day before the study, then fast until after administration of study drug. On the day of the study, subjects were admitted to University of Minnesota General Clinical Research Center where a neurologist performed a brief physical and neurological exam, vital signs were recorded, an ECG strip was obtained, indwelling catheters were placed in the left and right forearms, and blood samples were drawn for baseline laboratory tests.
A baseline assessment of topiramate toxicity was performed using the following criteria: ataxia and nystagmus: 0=none, 1=mild, 2=severe. As used herein, “ataxia” is classified as “mild”—for unsteady with tandem gait testing, but able to perform without assistance, or as “severe”—unable to perform tandem gait testing without assistance
The [^13C]6-TPM was administered into the right arm catheter, while blood samples for laboratory tests were drawn from the left arm. Laboratory chemistries included albumin, blood chemistries, kidney and liver function test, and genotyping for drug disposition. A 25 mg [^13C]6-TPM dose was then infused over 10-20 minutes. The exact dose administered was determined gravimetrically from the pre- and post-dose syringe weights. At the end of the infusion, patients took their prescribed oral morning dose; thereafter they resumed their regular dosing regimen. Blood samples for pharmacokinetic analysis were taken at 0, 5 minutes, 15 minutes, 30 minutes, 1 hour, 2 hours, 4 hours, 6 hours, 10 hours, 24 hours, 48 hours, 72 hours and 96 hours after intravenous administration of the topiramate. Urine was collected from 0-24 hours for analysis of the parent drug to determine renal clearance. Urine volumes were measured and 15 mL aliquots were stored at −80° C. until analysis.
Topiramate was detected using a LC/MS method employing the electrospray ionization (ESI) and negative scan mode. This method is designed to measure both unlabeled topiramate and the stable-isotope topiramate using a negative ESI and SIM mode of liquid chromatograph mass spectrometer. The analytes were separated using ZORBAX® LC8/LC18 and a mobile phase consisting of ammonium acetate buffer and methanol. The data generated using CHEMSTATION® software (Agilent) and quantified using deuterated topiramate (“TPM-d12”, internal standard). Patient samples were run along with a 7-concentration standard curve (run in triplicate) and nine quality control samples (low, med and high also run in triplicates), analyzed in human plasma using liquid extraction with methyl-tert-butylether and negative ion electrospray mass spectrometry. The quantitative analysis was performed using selective ion monitoring mode for topiramate at m/z=338 and m/z=350 for TPM-d12 in the negative mode. The unlabeled topiramate calibration curve ranged from 0.05 μg/mL to 10 μg/mL.
Both stable-isotope topiramate and non-labeled topiramate concentration-time data was analyzed by non-compartmental methods to obtain AUC, clearance, half-life, and volume of distribution data. The AUC was determined by the trapezoidal rule and the terminal half-life was determined by linear regression of the terminal phase on log concentration vs. time plots. WINNONLIN® (Tripos L.L.P.), a pharmacokinetic data analysis package was used to fit the data to standard pharmacokinetic models (one and two-compartment models).
Elimination rate constant (kel): kel was determined by the best fit of the post-infusion isotope concentration-time data.
AUCiso=AUC0-96 hrs+Cp96 hrs/kel
Distribution Volume at Steady State (Vdss): Vdss was determined as follows: Vdss=Doseiso*AUMC/AUC where AUMC is the area under the first moment curve, and calculated by determining the area under the curve of a plot of the product of concentration and time versus time from zero time to infinity. […]

For data set [5] the following is noted: cited from earlier work. The source holds these as a separate data set.
For data set [6] the following is noted: administered parenterally, orally and via inhalation; compared with β-cyclodextrin; cited from earlier work.
Where [7] appears, read: adult patients, summary of three subjects.
[8] abbreviates: subject TUMN1, oral dose 50 mg b.i.d.
[9] abbreviates: subject TUMN2, oral dose 100 mg q.d.
Where [10] appears, read: subject TUMN3, oral dose 25 mg b.i.d.

For `CC1(C)O[C@@H]2[C@@H](CO[C@@]3(COS(N)(=O)=O)OC(C)(C)O[C@@H]23)O1` [Topiramate, 2,3:4,5-di-O-isopropylidene-β-D-fructopyranose sulfamate], the “effect on AMPA-kainate receptor-mediated cell death and calcium influx, kainate-evoked currents” value in the data set on AMPA-kainate receptor is listed as “attenuates”. In addition, the “effect on selective hypoxic-ischemic white matter injury” value in data set [1] is listed as “protective against selective hypoxic-ischemic white matter injury”. In data set [2] (in water in the absence of cyclodextrin, room temperature), this compound registered an intrinsic solubility of 7860 µg/mL. Moreover, the phase solubility type result in data set [2] (topiramate in CAPTISOL solutions in water) was “Type A-linear”. Also, the “bioavailability of an oral topiramate dose” value in data set [3] (oral administration, previously found) is reported as “about 80%”. For the same compound, the “oral dose excreted in the urine as unchanged drug” value in data set [3] (oral administration) is “about 70%”. The “higher clearance in pediatric patients compared to adults” value in data set [3] (pediatric patients vs adults) was 50%. Besides, in data set [4] (setting [7]), the “distribution volume for intravenously administered topiramate” value is recorded as “approximately 0.7 L/kg” and the oral absorption entry is “approximately 100%”. Further, in data set [4] (subject TUMN1), the BP changes entry is given as “None”, the EKG changes result is reported as “None”, the Injection site irritation result was “None” and the Other adverse events entry is reported as “None”. The Pulse changes entry in data set [4] (subject TUMN1) is recorded as “None”. Besides, in data set [4] (setting [8]), the “Bioavailability (fraction of oral dose absorbed, AUCoral vs AUCiso)” value is 102%; the Clearance turned out to be 1.01 L/h; the Distribution volume came out at 0.78 L/kg; the Half life amounted to 30.5 h. In data set [4] (subject TUMN2), the BP changes result is given as “None”, the EKG changes entry is reported as “None”, the Injection site irritation result is reported as “None” and the Other adverse events result was “None”. For the same compound, the Pulse changes result in data set [4] (subject TUMN2) is recorded as “None”. In addition, in data set [4] (setting [9]), the “Bioavailability (fraction of oral dose absorbed, AUCoral vs AUCiso)” value is on record as 106%; the Clearance came out at 1.07 L/h; the Distribution volume is listed as 0.68 L/kg; the Half life came out at 28.4 h. For the same compound, in data set [4] (subject TUMN3), the BP changes result is on record as “None”, the EKG changes entry is given as “None”, the Injection site irritation result was “None” and the Pulse changes result is listed as “None”. In addition, the Other adverse events result in data set [4] (subject TUMN3, cell wraps: Vasovagal response during IV line placement) was “Vasovagal”. In addition, in data set [4] (setting [10]), the “Bioavailability (fraction of oral dose absorbed, AUCoral vs AUCiso)” value is listed as 109%; the Clearance was 1.11 L/h; the Distribution volume is recorded as 0.70 L/kg; the Half life was 38.0 h.

Turning to “sulfobutylether-β-cyclodextrin [CAPTISOL®]”, the water solubility in data set [5] is above 90 g per 100 mL. In addition, the nephrotoxicity result in data set [6] is on record as “does not exhibit the nephrotoxicity associated with β-cyclodextrin”.

The record behind these values is patent US11969470B2, “Topiramate compositions and methods of making and using the same” (Regents of the University of Minnesota, priority 2006, dated 2024).
